From patent US8119563B2, “N-substituted azacycles” (FMC Corporation, priority 2003, dated 2012)

Tested on: tobacco budworm (Heliothis virescens [Fabricius])
Assay: surface-treated diet test, insecticidal activity against tobacco budworm
Format: in vivo
Conditions: 0.25 millimoles of candidate insecticide on the surface of the diet, second instar larvae, five-day exposure; for Percent Mortality: compared to total number of insects infested; for Percent Growth Inhibition: inhibition of insect weight relative to untreated controls
Procedure, shortened: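 Second-instar larvae (~5 mg) were held five days at 25° C and 60% RH on artificial diet whose surface carried dried compound (0.25 millimolar standard rate; DMSO serial dilutions for rate series, six replicates each). Readouts: mortality and weight inhibition relative to DMSO-treated controls.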

Row | Structure (SMILES) | Percent Mortality [%] | Percent Growth Inhibition [%]
1 | [O-][N+]1(Cc2ccc(C=NOCCF)cc2)CCC(O)(C(c2ccc(OC(F)(F)F)cc2)c2ccc(OC(F)(F)F)cc2)CC1 (stereo not shown) [Compound 389] | 100 | 100
2 | CCCOC(=O)Nc1ccc(C[N+]2([O-])CCC(O)(C(c3ccc(C(F)(F)F)cc3)c3ccc(C(F)(F)F)cc3)CC2)cc1 (stereo not shown) [Compound 390] | 100 | 100
3 | [O-][N+]1(Cc2ccc(Oc3ccccn3)cc2)CCC(O)(C(c2ccc(Cl)cc2)c2ccc(OC(F)(F)F)cc2)CC1 (stereo not shown) [Compound 391] | 100 | 100
4 | [O-][N+]1(Cc2ccc(OCC3CC3)cc2)CCC(O)(C(c2ccc(OC(F)(F)F)cc2)c2ccc(OC(F)(F)F)cc2)CC1 (stereo not shown) [Compound 392] | 100 | 100
5 | [O-][N+]1(Cc2ccc(OCc3ccccc3)cc2)CCC(O)(C(c2ccc(C(F)(F)F)cc2)c2ccc(C(F)(F)F)cc2)CC1 (stereo not shown) [Compound 393] | 100 | 100
6 | [O-][N+]1(Cc2ccc(Oc3ncccc3Cl)cc2)CCC(O)(C(c2ccc(OC(F)(F)F)cc2)c2ccc(OC(F)(F)F)cc2)CC1 (stereo not shown) [Compound 399] | 100 | 100
7 | [O-][N+]1(Cc2ccc(Oc3ncccn3)cc2)CCC(O)(C(c2ccc(Cl)cc2)c2ccc(OC(F)(F)F)cc2)CC1 (stereo not shown) [Compound 402] | 100 | 100
8 | O=C(Nc1ccc(C[N+]2([O-])CCC(O)(C(c3ccc(OC(F)(F)F)cc3)c3ccc(OC(F)(F)F)cc3)CC2)cc1)OCC1CC1 (stereo not shown) [Compound 404] | 100 | 100
9 | CCON=Cc1ccc(C[N+]2([O-])CCC(O)(C(c3ccc(Cl)cc3)c3ccc(OC(F)(F)F)cc3)CC2)cc1 (stereo not shown) [Compound 405] | 100 | 100
10 | CC(C)OC(=O)c1ccc(C[N+]2([O-])CCC(O)(C(c3ccc(C(F)(F)F)cc3)c3ccc(C(F)(F)F)cc3)CC2)cc1 (stereo not shown) [Compound 407] | 100 | 100
11 | [O-][N+]1(Cc2ccc(Oc3ncccn3)cc2)CCC(O)(C(c2ccc(OC(F)(F)C(F)C(F)(F)F)cc2)c2ccc(OC(F)(F)C(F)C(F)(F)F)cc2)CC1 (stereo not shown) [Compound 409] | 100 | 100
12 | NC(=O)CON=Cc1ccc(C[N+]2([O-])CCC(O)(C(c3ccc(OC(F)(F)F)cc3)c3ccc(OC(F)(F)F)cc3)CC2)cc1 (stereo not shown) [Compound 410] | 100 | 100
13 | [O-][N+]1(Cc2ccc(-c3ncccc3Cl)cc2)CCC(O)(C(c2ccc(OC(F)(F)F)cc2)c2ccc(OC(F)(F)F)cc2)CC1 (stereo not shown) [Compound 411] | 100 | 100
14 | [O-][N+]1(Cc2ccc(Oc3ccc(Cl)nn3)cc2)CCC(O)(C(c2ccc(OC(F)(F)F)cc2)c2ccc(OC(F)(F)F)cc2)CC1 (stereo not shown) [Compound 412] | 100 | 100
15 | Cc1ccc(Oc2ccc(C[N+]3([O-])CCC(O)(C(c4ccc(OC(F)(F)F)cc4)c4ccc(OC(F)(F)F)cc4)CC3)cc2)nn1 (stereo not shown) [Compound 413] | 100 | 100
16 | CCn1nnc(-c2ccc(CN3CCC(O)(C(O)(c4ccc(OC(F)(F)F)cc4)c4ccc(OC(F)(F)F)cc4)CC3)cc2)n1 [Compound 416] | 100 | 100
17 | CCON=Cc1ccc(CN2CCC(O)(C(O)(c3ccc(OC(F)(F)F)cc3)c3ccc(OC(F)(F)F)cc3)CC2)cc1 [Compound 417] | 100 | 100
18 | O=Cc1ccc(CN2CCC(O)(C(O)(c3ccc(OC(F)(F)F)cc3)c3ccc(OC(F)(F)F)cc3)CC2)cc1 [Compound 418] | 0 | 83
19 | CC(C)OC(=O)Nc1ccc(CN2CCC(O)(C(O)(c3ccc(OC(F)(F)F)cc3)c3ccc(OC(F)(F)F)cc3)CC2)cc1 [Compound 419] | 100 | 100
20 | [O-][N+]1(Cc2ccc(Oc3ccccn3)cc2)CCC(O)(C(O)(c2ccc(OC(F)(F)F)cc2)c2ccc(OC(F)(F)F)cc2)CC1 (stereo not shown) [Compound 421] | 100 | 100
21 | [O-][N+]1(Cc2ccc(Oc3ncccn3)cc2)CCC(O)(C(O)(c2ccc(OC(F)(F)F)cc2)c2ccc(OC(F)(F)F)cc2)CC1 (stereo not shown) [Compound 422] | 100 | 100
22 | CC(C)OC(=O)Nc1ccc(C[N+]2([O-])CCC(O)(C(O)(c3ccc(OC(F)(F)F)cc3)c3ccc(OC(F)(F)F)cc3)CC2)cc1 (stereo not shown) [Compound 423] | 100 | 100
23 | CCON=Cc1ccc(C[N+]2([O-])CCC(O)(C(O)(c3ccc(OC(F)(F)F)cc3)c3ccc(OC(F)(F)F)cc3)CC2)cc1 (stereo not shown) [Compound 424] | 100 | 100
24 | [O-][N+]1(Cc2ccc(Oc3ccc(Cl)nn3)cc2)CCC(O)(C(O)(c2ccc(OC(F)(F)F)cc2)c2ccc(OC(F)(F)F)cc2)CC1 (stereo not shown) [Compound 425] | 100 | 100

Row | Structure (SMILES) | Percent Mortality [%] | Percent Growth Inhibition [%]
25 | CCn1nnc(-c2ccc(C[N+]3([O-])CCC(O)(C(O)(c4ccc(OC(F)(F)F)cc4)c4ccc(OC(F)(F)F)cc4)CC3)cc2)n1 (stereo not shown) [Compound 426] | 100 | 100
26 | [O-][N+]1(Cc2ccc(Oc3ccccn3)cc2)CCC(O)(C(F)(c2ccc(OC(F)(F)F)cc2)c2ccc(OC(F)(F)F)cc2)CC1 (stereo not shown) [Compound 430] | 100 | 100
27 | [O-][N+]1(Cc2ccc(Oc3ccccn3)cc2)CCC2(CC1)OC2(c1ccc(OC(F)(F)F)cc1)c1ccc(OC(F)(F)F)cc1 (stereo not shown) [Compound 431] | 100 | 100
28 | OC1(C(c2ccc(OC(F)(F)F)cc2)c2ccc(Cl)cc2Cl)CCN(Cc2ccc(Oc3ccccn3)cc2)CC1 (stereo not shown) [Compound 433] | 100 | 100
29 | OC1(C(c2ccccc2F)c2ccccc2F)CCN(Cc2ccc(Oc3ncccn3)cc2)CC1 [Compound 434] | 0 | 56
30 | Cc1cc(C(c2ccc(OC(F)(F)F)cc2)C2(O)CCN(Cc3ccc(Oc4ccccn4)cc3)CC2)ccc1Cl (stereo not shown) [Compound 435] | 100 | 100
31 | Cc1cc(Cl)ccc1C(c1ccc(OC(F)(F)F)cc1)C1(O)CCN(Cc2ccc(Oc3ccccn3)cc2)CC1 (stereo not shown) [Compound 436] | 100 | 100
32 | OC1(C(c2ccc(OC(F)(F)F)cc2)c2ccccc2Cl)CCN(Cc2ccc(Oc3ccccn3)cc2)CC1 (stereo not shown) [Compound 437] | 100 | 100
33 | OC1(C(c2ccc(OC(F)(F)F)cc2)c2cccc(Cl)c2Cl)CCN(Cc2ccc(Oc3ccccn3)cc2)CC1 (stereo not shown) [Compound 438] | 100 | 100
34 | OC1(C(c2ccc(OC(F)(F)F)cc2)c2cccc(Cl)c2)CCN(Cc2ccc(Oc3ccccn3)cc2)CC1 (stereo not shown) [Compound 439] | 100 | 100
35 | CCON=Cc1ccc(C(c2ccc(OC(F)(F)F)cc2)C2(O)CCN(Cc3ccc(Oc4ccccn4)cc3)CC2)cc1 (stereo not shown) [Compound 440] | 100 | 100
36 | OC1(C(c2ccc(OC(F)(F)F)cc2)c2ccc(Cl)c(Cl)c2)CCN(Cc2ccc(Oc3ccccn3)cc2)CC1 (stereo not shown) [Compound 441] | 100 | 100
37 | OC1(C(c2ccc(OC(F)(F)F)cc2)c2cc(Cl)cc(Cl)c2)CCN(Cc2ccc(Oc3ccccn3)cc2)CC1 (stereo not shown) [Compound 442] | 100 | 100
38 | OC1(C(c2ccc(OC(F)(F)F)cc2)c2cc(Cl)ccc2Cl)CCN(Cc2ccc(Oc3ccccn3)cc2)CC1 (stereo not shown) [Compound 443] | 100 | 100
39 | CCON=Cc1ccc(CN2CCC(O)(C(c3ccc(OC(F)(F)F)cc3)c3ccc(Cl)cc3Cl)CC2)cc1 (stereo not shown) [Compound 444] | 100 | 100
40 | OC1(C(c2ccc(OC(F)(F)F)cc2)c2ccc(Cl)cc2F)CCN(Cc2ccc(Oc3ccccn3)cc2)CC1 (stereo not shown) [Compound 445] | 100 | 100
41 | OC1(C(c2ccc3c(c2)OC(F)(F)O3)c2ccc3c(c2)OC(F)(F)O3)CCN(Cc2ccc(Oc3ccccn3)cc2)CC1 [Compound 446] | 100 | 100
42 | COc1cc(CN2CCC(O)(C(c3ccc(OC(F)(F)F)cc3)c3ccc(OC(F)(F)F)cc3)CC2)ccc1Oc1ccccn1 [Compound 447] | 100 | 100
43 | OCC1(C(c2ccc(C(F)(F)F)cc2)c2ccc(C(F)(F)F)cc2)CCN(Cc2ccc(Oc3ncccn3)cc2)CC1 [Compound 448] | 0 | 96
44 | [N-]=[N+]=NCC1(C(c2ccc(C(F)(F)F)cc2)c2ccc(C(F)(F)F)cc2)CCN(Cc2ccc(OCC3CC3)cc2)CC1 [Compound 449] | 0 | 78
45 | NCC1(C(c2ccc(C(F)(F)F)cc2)c2ccc(C(F)(F)F)cc2)CCN(Cc2ccc(OCC3CC3)cc2)CC1 [Compound 450] | 50 | 100
46 | CC(=O)NCC1(C(c2ccc(C(F)(F)F)cc2)c2ccc(C(F)(F)F)cc2)CCN(Cc2ccc(Oc3ncccn3)cc2)CC1 [Compound 451] | 0 | 100
47 | CC(=O)OCC1(C(c2ccc(C(F)(F)F)cc2)c2ccc(C(F)(F)F)cc2)CCN(Cc2ccc(Oc3ncccn3)cc2)CC1 [Compound 452] | 0 | 100
